Where a SMILES comes first, the peptide text is derived from it.
What was measured:
[1] = target: T1, N-His Ich-1 (Homo sapiens, UniProt P42575); assay: In vitro proteolysis assay with chromogenic para-nitroaniline-labeled peptide substrate (absorbance 405 nm); type: biochemical
T1 construct: contains Ich-1 amino acid residues 167-435, with an initiator and polyhistidine tag fused to the amino terminus; initiator (Met) + polyhistidine tag (N); made in house
T1 sequence (P42575 184-333): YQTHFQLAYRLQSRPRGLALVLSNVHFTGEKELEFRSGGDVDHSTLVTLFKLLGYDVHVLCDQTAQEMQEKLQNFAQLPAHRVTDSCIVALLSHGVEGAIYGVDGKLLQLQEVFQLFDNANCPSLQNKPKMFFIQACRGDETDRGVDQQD
T1 sequence (P42575 334-452): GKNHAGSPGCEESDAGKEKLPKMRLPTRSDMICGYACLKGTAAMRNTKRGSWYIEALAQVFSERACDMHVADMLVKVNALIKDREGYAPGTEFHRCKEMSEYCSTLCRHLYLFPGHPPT
Text: To identify peptide substrates for Ich-1, candidate peptides were used in in vitro proteolysis assays with recombinant Ich-1 protein. Human Ich-1 enzyme (the nucleotide and amino acid sequences for which are disclosed in Wang, L., et al. (1994) Cell 78:739-750) was expressed recombinantly with an N-terminal polyhistidine tag by methods described in Kamens, J., et al. (1995) J. Biol. Chem. 270:15250-15256. The resulting enzyme, called N-His Ich-1, contains Ich-1 amino acid residues 167-435, with an initiator and polyhistidine tag fused to the amino terminus. […]
A peptidic aldehyde inhibitor of Ich-1 was designed based upon the optimal peptide substrate (Peptide 43) described in Example 3. […] The ability of this peptidic aldehyde inhibitor to inhibit N-His Ich-1 activity was determined in in vitro proteolysis assays using a chromogenic para-nitroaniline-labeled peptide substrate. […]
To perform the proteolysis assay, N-His Ich-1 was preincubated for 30 minutes at 30° C. in 160 μl of a reaction buffer containing 100 mM sodium acetate (pH 6.2), 20% (v/v) glycerol, 5 mM DTT, 0.5 mM EDTA, […]. […] The incubation of N-His Ich-1 with the peptide substrate at 30° C. was continued, and the catalytic hydrolysis of peptide substrate was monitored by the change in absorbance of the samples at 405 nm due to release of pNA as a function of time. […]

[2] = target: T1, N-His Ich-1; assay: In vitro proteolysis assay: cleavage of candidate peptide substrates by N-His Ich-1 (reverse phase HPLC); type: biochemical; conditions: Tables 1-3
Text: To identify peptide substrates for Ich-1, candidate peptides were used in in vitro proteolysis assays with recombinant Ich-1 protein. Human Ich-1 enzyme (the nucleotide and amino acid sequences for which are disclosed in Wang, L., et al. (1994) Cell 78:739-750) was expressed recombinantly with an N-terminal polyhistidine tag by methods described in Kamens, J., et al. (1995) J. Biol. Chem. 270:15250-15256. The resulting enzyme, called N-His Ich-1, contains Ich-1 amino acid residues 167-435, with an initiator and polyhistidine tag fused to the amino terminus. The recombinant N-His Ich-1 protein was purified by metal chelating column chromatography as described in Porath, J. (1992) Protein Expression and Purification 3:263-281.
Candidate peptide substrates were synthesized by standard solid phase methods and were purified to ≥95% by reverse-phase chromatography. Peptide identities were confirmed by mass spectrometry. Each peptide was acetylated at the amino-terminus and amidated at the carboxy-terminus. The amino acid sequence of each peptide included at least one Trp or Tyr residue. Stock solutions of each peptide were prepared in dimethylsulfoxide (DMSO) at approximately 10 mM. The precise concentration of each stock solution was determined in duplicate as described in Edelhoch, H. (1967) Biochemistry 6:1948-1954. Dilutions of each stock solution to 500 μM were prepared and stored at -20° C. prior to use in enzyme assays.
To determine the substrate specificity of Ich-1, Vmax /Km values for various candidate peptide substrates were compared using experimental procedures modeled after those of Howard, A., et al. (1991) J. Immunol. 147:2964-2969. Enzyme reaction mixtures (810 μL) were prepared containing: 100 mM sodium acetate (pH 6.2), 20% (v/v) glycerol, 5 mM dithiothreitol, 0.5 mM EDTA and approximately 15 μg N-His Ich-1. These mixtures were capped and preincubated for 30 minutes at 30° C. Candidate peptide substrates were added from 500 μM DMSO stocks to give final concentrations of 10 μM peptide and 2% (v/v) DMSO. The reaction mixtures were then capped and incubation was continued at 30° C. At 10 minute intervals for 60 minutes beginning at t=0, aliquots of 110 μL were removed from each reaction mixture and added to vials containing 11 μL of a solution of 3 M HCl in water to stop the enzyme reaction. Samples were stored at room temperature prior to analysis.
Samples were analyzed by reverse phase HPLC using a 250×4.6 mm C18 reverse phase column (Vydak, Hesperia, Calif.) and a linear gradient of MeCN--H2 O with 0.1% (v/v) TFA. The area under the substrate peaks (arbitrary units) was plotted vs. time of reaction for each substrate and fit into an equation of the form: [formula]
wherein S0 is substrate peak area at time=0, St is substrate peak area at time=t, e is a constant approximately equal to 2.718, k is the first order rate constant formally equal to Vmax /Km and t is time. […] Alternatively, results can be expressed as percent substrate cleavage after a fixed time of reaction.

[3] = system: N-His Ich-1; assay: 100 mM sodium acetate (pH 6.2), 20% (v/v) glycerol, 5 mM dithiothreitol, 0.5 mM EDTA and approximately 15 μg N-His Ich-1; conditions: Human, 30° C., up to 60 minutes
[4] = system: N-His Ich-1; assay: reaction buffer containing 100 mM sodium acetate (pH 6.2), 20% (v/v) glycerol, 5 mM DTT, 0.5 mM EDTA, at pH 7.5; conditions: Human, 30° C.

not cleaved [3] | Molecule | cleavage by N-His Ich-1 (in words) [2] | other results
 | CC(=O)N[C@H](C(=O)N[C@@H](CC(=O)O)C(=O)N[C@H](C(=O)N[C@@H](C)C(=O)N[C@H](C=O)CC(=O)O)C(C)C)C(C)C [Ac-VDVAD-CHO, acetyl-Val-Asp-Val-Ala-Asp-CHO] (Ac-VDVAD-aldehyde) |  | IC50 ([1]; 500 μM pNA substrate, inhibitor 0.1 nM to 10 μM, sigmoidal fit): 8 nM; Ki ([1]; calculated from IC50, [S] and Km, read-out: apparent Ki): 2.5 nM
 | CC(=O)N[C@H](C(=O)N[C@@H](CO)C(=O)N[C@@H](CCC(N)=O)C(=O)N[C@@H](CCC(N)=O)C(=O)N[C@@H](CC(=O)O)C(=O)NCC(=O)N[C@@H](Cc1c[nH]c2ccccc12)C(N)=O)C(C)C [Peptide 22, acetyl-VSQQDGW-amide] (Ac-VSQQDGW-NH2) | tolerated, but is cleaved at a substantially lower efficiency than P4 Asp | 
 | CC(=O)N[C@H](C(=O)N[C@@H](CCC(=O)O)C(=O)N[C@@H](CCC(N)=O)C(=O)N[C@@H](CCC(N)=O)C(=O)N[C@@H](CC(=O)O)C(=O)NCC(=O)N[C@@H](Cc1c[nH]c2ccccc12)C(N)=O)C(C)C [Peptide 23, acetyl-VEQQDGW-amide] (Ac-VEQQDGW-NH2) | not tolerated | 
 | CC(=O)N[C@H](C(=O)N[C@@H](C)C(=O)N[C@@H](CCC(N)=O)C(=O)N[C@@H](CCC(N)=O)C(=O)N[C@@H](CC(=O)O)C(=O)NCC(=O)N[C@@H](Cc1c[nH]c2ccccc12)C(N)=O)C(C)C [Peptide 24, acetyl-VAQQDGW-amide] (Ac-VAQQDGW-NH2) | relatively poor cleavage | 
 | CC(=O)N[C@H](C(=O)N[C@@H](CC(N)=O)C(=O)N[C@@H](CCC(N)=O)C(=O)N[C@@H](CCC(N)=O)C(=O)N[C@@H](CC(=O)O)C(=O)NCC(=O)N[C@@H](Cc1c[nH]c2ccccc12)C(N)=O)C(C)C [Peptide 25, acetyl-VNQQDGW-amide] (Ac-VNQQDGW-NH2) | not tolerated | 
 | CC(=O)N[C@H](C(=O)N[C@@H](CC(=O)O)C(=O)N[C@@H](CCC(N)=O)C(=O)N[C@@H](Cc1ccc(O)cc1)C(=O)N[C@@H](CC(=O)O)C(=O)NCC(=O)N[C@@H](Cc1c[nH]c2ccccc12)C(N)=O)C(C)C [Peptide 40, acetyl-VDQYDGW-amide] (Ac-VDQYDGW-NH2) | poorly cleaved compared to the most preferred peptides | 
 | CC(=O)N[C@H](C(=O)N[C@@H](CC(=O)O)C(=O)N[C@@H](CCC(N)=O)C(=O)N[C@@H](CCC(=O)O)C(=O)N[C@@H](CC(=O)O)C(=O)NCC(=O)N[C@@H](Cc1c[nH]c2ccccc12)C(N)=O)C(C)C [Peptide 41, acetyl-VDQEDGW-amide] (Ac-VDQEDGW-NH2) | poorly cleaved compared to the most preferred peptides | 
 | CC(=O)N[C@H](C(=O)N[C@@H](CC(=O)O)C(=O)N[C@@H](CCC(N)=O)C(=O)N[C@@H](CCC(N)=O)C(=O)N[C@@H](CCC(=O)O)C(=O)NCC(=O)N[C@@H](Cc1c[nH]c2ccccc12)C(N)=O)C(C)C [Peptide 42, acetyl-VDQQEGW-amide] (Ac-VDQQEGW-NH2) | modest cleavage | 
1% cleavage after 60 minute reaction | Ac-GEDMQDNSGTYW-NH2 |  | 
0% cleavage after 60 minute reaction | Ac-HSLDNKDGPVW-NH2 |  | 
0% cleavage after 60 minute reaction | Ac-NEAYVHDAPVRSLY-NH2 |  | 
 | Ac-RGVDQQDGKNHW-NH2 |  | cleaved bond [3]: Asp7-Gly
0% cleavage after 60 minute reaction | Ac-WGDEVDGVDEVW-NH2 |  | 
0% cleavage after 60 minute reaction | Ac-YSDQMDGFHDSW-NH2 |  | 
 | acetyl-Val-Asp-Val-Ala-Asp-para-nitroaniline |  | cleaved bond [4]: Asp-pNA

From patent US6288037A (BASF Aktiengesellschaft, priority 1996, dated 2001)
